In patent US11760784B2, “Compositions comprising PEDF-derived short peptides and uses thereof” (BRIM Biotechnology, Inc., priority 2016, dated 2023):
Entries after “also recorded” stand apart in the source; their conditions may differ.

Legend:
[1] = system: desiccating stress-induced dry eye; assay: Corneal fluorescein staining in desiccating stress-induced dry eye (CEC) mice; assay type: in vivo, C57BL/6 mice; details: CEC 14 days, then peptide for 3 days (FIG. 11)
[2] = system: GSH in rabbit corneal epithelial cells; assay: Glutathione (GSH) level (OPA probe) in NaCl-treated corneal epithelial cells; assay type: cell-based; details: 10 μM PDSP, isotonic medium, compared to untreated
Method: We therefore examined the effects of PDSP on the intracellular ROS and GSH levels in NaCl-treated (HOP) rabbit corneal epithelial cells. Briefly, rabbit corneal epithelial cells were pretreated with 10 μM PDSP or a negative control peptide (ConP) for 20 hours, followed by treatment with NaCl to induce hyperosmotic stress. After NaCl treatment for another 24 hours, cells were assessed for ROS using a 2′,7′-dichlorodihydrofluorescein diacetate (H2DCFDA) probe, which is an ROS indicator dye. H2DCFDA can diffuse into cells, where its acetate ester linkages are cleaved by intracellular esterases and be oxidized by ROS, which converts the nonfluorescent dichlorodihydrofluorescein diacetate (H2DCFDA) to highly fluorescent […] (DCF).
Limbal stem cells were isolated from 6-month-old New Zealand white rabbits and continuously cultivated for 14 days by DMEM/F-12 basal medium based cell-suspension culture to achieve corneal-liked epithelial cell differentiation as previously described (Ho et al., 2013). […]
The GSH levels were quantified using a Glutathione Assay Kit (BioVision Research Products, Mountain View, Calif.) according to the manufacturer's recommendations. […] The fluorescence was read at 340 nm for excitation and 420 nm for emission on a SPECTRAmax GEMINI XS fluorescence microplate spectrophotometer (Molecular Devices, Sunnyvale, Calif.).

[3] = system: desiccating stress-induced dry eye; assay: Corneal fluorescein staining in desiccating stress-induced dry eye (CEC) mice; assay type: in vivo, C57BL/6 mice
Method: In an animal model for dry eye diseases, mice were placed in a controlled environment chamber (CEC) to induce dry eyes as previously described (Barabino et al., 2005). Mice placed in the CEC were exposed to a relative humidity (RH)<25%, temperature of 20 to 22° C., with an airflow of 15 L/min, 12 hours per day. Non-Stressed mice were kept in a normal environment (RH >50%, no air flow, temperature of 21-23° C.) for the same duration. After 14 days, non-stressed mice were treated with vehicle, while the stressed mice were treated with either a test peptide (e.g., the 29mer PDSP) or vehicle solution (Vehicle group) for 5 days. Then, the cornea was examined with fluorescein staining.
Seven to 8-week-old female C57BL/6 mice were used for these experiments. Experimental procedures were approved by the Mackay Memorial Hospital Review Board and conducted according to the ARVO Statement for the Use of Animals in Ophthalmic and Vision Research.
(§1) Dry eye was induced by placing mice in a controlled environment chamber (CEC) as previously described (Barabino et al., 2005). Briefly, mice placed in the CEC were exposed to a relative humidity (RH)<25%, temperature of 20 to 22° C., and airflow of 15 L/min, 12 hours per day. Non-stressed (NS) mice without stress-induced dry eye were kept in a normal environment (RH >50%, no air flow, temperature of 21-23° C.) for the same duration. Corneal fluorescein staining and
Animals were anesthetized by an intraperitoneal injection of a mixture of zoletil (6 mg/kg) and xylazine (3 mg/kg). Corneal epithelial injury was determined by staining with topical fluorescein (Fluor-I-Strip, Ayerst Laboratories, Philadelphia, Pa.). Corneal fluorescein staining was examined with a slit-lamp biomicroscope under cobalt blue light and photographed with a digital camera. Dye staining of the cornea was scored in a manner as follows: score 0 for no punctuate staining; score 1 when less than one third of the cornea was stained; score 2 when two thirds or less was stained; and score 3 when more than two thirds was stained (Horwath-Winter J 2013).
To determine whether PDSP have therapeutic effects in a desiccating stress (DS)-induced ocular surface defects, mice were housed at controlled environment chamber (CEC) for 14 days to create ocular surface disruption. After 14 days in CEC, we used mice with fluorescence scores that are above 2 for the first experiments (FIG. 1A). Subsequently, dry eyes were treated topically with PDSP at 25-200 μM (3 times/day) or PDSP vehicle (1% CMC in BSS) for another 5 days while maintaining the same desiccating stress protocol.
To investigate whether the PDSP can suppress DS-induced corneal epithelial disruption, we applied the 14-day desiccating stress protocol to mice, and treated these mice topically with PDSP 3 times a day.

4-HNE = 4-HNE immunohistochemistry (lipid peroxidation) in cornea and conjunctiva of CEC mice; assay type: in vivo; details: PDSP from beginning of 14 days in CEC
Source text: For this test, mice were housed in CEC for 14 days and the PDSP treatment started at the beginning of housing in CEC. Then, the production of oxidative stress products (e.g., 4-hydroxy-2-nonenal, 4-HNE) was examined. 4-HNE was found throughout animal tissues, and in higher quantities during oxidative stress due to the increase in the lipid peroxidation. 4-HNE contains a reactive aldehyde, which may modify proteins. The 4-HNE-modified proteins may be detected with antibodies specific for the 4-HNE moiety.
Oxidative stress-induced lipid peroxidation was assessed by immunohistochemical detection of 4-hydroxy-2-nonenal (4HNE) in the cornea and conjunctiva. Formalin-fixed, paraffin-embedded eye specimens were deparaffinized in xylene and rehydrated in a graded series of ethanol concentrations. Slides were blocked with 10% goat serum for 60 min and then incubated with primary antibody against 4-HNE (1:100 dilution) (ab46545, Abcam) 4 hours at room temperature. The slides were subsequently incubated with the appropriate peroxidase-labeled goat immunoglobulin (1:500 dilution; Chemicon, Temecula, Calif.) for 20 min and then incubated with chromogen substrate (3,3′-diaminobenzidine) for 2 min before counterstaining with hematoxylin.

[4] = system: desiccating stress-induced dry eye; assay: Tear production by phenol red thread test in CEC dry eye mice; assay type: in vivo, C57BL/6 mice; details: CEC 14 days
Method: as §1
Tear production was measured with phenol red-impregnated cotton threads (Zone-Quick; Oasis, Glendora, CA). The validity of this test in mice was performed as previously described (Dursun et al., 2002). The threads were held with jeweler forceps and placed in the lateral canthus for 60 seconds. The tear production is expressed in millimeters of thread that is wet by the tear and turned red.
To determine whether PDSP have therapeutic effects in a desiccating stress (DS)-induced ocular surface defects, mice were housed at controlled environment chamber (CEC) for 14 days to create ocular surface disruption. After 14 days in CEC, we used mice with fluorescence scores that are above 2 for the first experiments (FIG. 1A). […]

Substance: PDSP: 29mer, residues 93-121 of human PEDF: SLGAEQRTESIIHRALYYDLISSPDIHGT (SEQ ID NO:4) (listed as Homo sapiens)
- corneal damage by corneal fluorescein staining, human vs mouse 29mer [1]: protection from corneal surface damages
- corneal damage by corneal fluorescein staining, human vs mouse 29mer ([1]; listed as human PDSP): capable of restore the ocular surface damages
- GSH level without HOP stress (peptide alone) [2]: slight increase
- corneal fluorescein staining score (0 to 3) ([3]; preventive: 100 μM PDSP topically 3 times a day from beginning of 14 days in CEC, vehicle 1.7±0.3): 0.7±0.2
- corneal surface damage by fluorescein staining ([3]; therapeutic: CEC 14 days to induce dry eye, then peptide on the eyes for 5 days): essentially gone
- 4-HNE signal in the conjunctiva (4-HNE; versus vehicle): 4-HNE signal was clearly stronger in vehicle-treated eyes than in eyes subjected to the PDSP treatment
- number of cells positively stained for 4-HNE in corneal epithelia (4-HNE; NS 1.9±0.6, vehicle 20.1±1.4): 5.3±1.0
- tear production (cotton thread test) ([4]; then PDSP for 5 days, vehicle 4.5±0.2, day 0 3.8±0.5, non-stressed 5.4±0.4): 5±0.3 mm
- tear production (phenol red thread), human vs mouse PDSP ([4]; then peptide for 3 days (FIG. 12), listed as human PDSP): capable of restore; also recorded: improved tear productions to the same extent
